Source: patent EP0680950B1, “PROPENONE DERIVATIVES” (KYOWA HAKKO KOGYO CO., LTD., priority 1993, dated 1995)

These compounds were tested on HeLa S3 cells (assay: HeLa S3 Cell Growth Inhibition Test). Details: Homo sapiens, 72 hours culture with compound, neutral red staining.
Type: cell-based
Procedure: Each 0.1 ml of HeLa S3 cells which had been prepared to 3 x 10^4 cells/ml using a medium consisted of MEM medium, 10 % fetal bovine serum and 2 mM glutamine was distributed in each well of 96 well-microtiter plate. HeLa S3 was cultured at 37°C in a CO2 incubator for one night, each 0.05 ml of test compounds which had been appropriately diluted with the culture solution was added thereto and the mixture was cultured at 37°C for 72 hours in a CO2 incubator. Supernatant was removed, each 0.1 ml of the culture solution containing 0.02 % neutral red was added to the residue, the mixture was incubated at 37°C for one hour in a CO2 incubator and the cells were stained. Supernatant was removed and the residue was washed once with physiological saline. Then, the pigment was extracted with 0.001 N hydrochloric acid/30 % ethanol and the absorbance at 550 nm was measured by a microplatereader. A concentration of the test compound (IC50) at which the growth of cell is inhibited by 50 % was calculated by comparing the absorbance of non-treated cells and that of cells treated with a predetermined concentration of the test compound.

IC50	Compound
6 nM	CCC/C(=C\c1c[nH]c2ccccc12)C(=O)c1cc(OC)c(OC)c(OC)c1 [Compound 49, (E)-3-(Indol-3-yl)-2-propyl-1-(3,4,5-trimethoxyphenyl)-2-propen-1-one]
0.73 nM	COc1cc(C(=O)/C(C)=C/c2c[nH]c3cc(C)ccc23)cc(OC)c1OC [Compound 63, (E)-2-Methyl-3-(6-methylindol-3-yl)-1-(3,4,5-trimethoxyphenyl)-2-propen-1-one]
58 nM	COc1cc(C(=O)/C=C/c2cn(C(=O)c3cccc(C)c3)c3ccccc23)cc(OC)c1OC [Compound 52, (E)-3-[1-(3-Methylbenzoyl)indol-3-yl]-1-(3,4,5-trimethoxyphenyl)-2-propen-1-one]
28 nM	COc1cc(C(=O)/C=C/c2cn(C(=O)c3cc(OC)c(OC)c(OC)c3)c3ccccc23)cc(OC)c1OC [Compound 59, (E)-3-[1-(3,4,5-Trimethoxybenzoyl)indol-3-yl]-1-(3,4,5-trimethoxyphenyl)-2-propen-1-one]
7.7 nM	COc1cc(C(=O)/C=C/c2cn(C(=O)c3cccnc3)c3ccccc23)cc(OC)c1OC [Compound 60, (E)-3-(1-Nicotinoylindol-3-yl)-1-(3,4,5-trimethoxyphenyl)-2-propen-1-one]
58 nM	CCn1cc(/C=C/C(=O)c2cc(OC)c(OC)c(OC)c2)c2ccccc21 [Compound 3, (E)-3-(1-Ethylindol-3-yl)-1-(3,4,5-trimethoxyphenyl)-2-propen-1-one]
60 nM	COc1cc(C(=O)/C=C/c2c[nH]c3ccc(F)cc23)cc(OC)c1OC [Compound 29, (E)-3-(5-Fluoroindol-3-yl)-1-(3,4,5-trimethoxyphenyl)-2-propen-1-one]
26 nM	COc1cc(C(=O)/C=C/c2cn(C(=O)c3ccccc3)c3ccccc23)cc(OC)c1OC [Compound 8, (E)-3-(1-Benzoylindol-3-yl)-1-(3,4,5-trimethoxyphenyl)-2-propen-1-one]
31 nM	COc1cc(C(=O)/C=C/c2cn(C(=O)c3ccc(N(C)C)cc3)c3ccccc23)cc(OC)c1OC [Compound 57, (E)-3-[1-(4-Dimethylaminobenzoyl)indol-3-yl]-1-(3,4,5-trimethoxyphenyl)-2-propen-1-one]
64 nM	COc1ccc(C(=O)n2cc(/C=C/C(=O)c3cc(OC)c(OC)c(OC)c3)c3ccccc32)cc1OC [Compound 58, (E)-3-[1-(3,4-Dimethoxybenzoyl)indol-3-yl]-1-(3,4,5-trimethoxyphenyl)-2-propen-1-one]
200 nM	COc1cc(C(=O)/C=C/c2c[nH]c3c(OC)cccc23)cc(OC)c1OC [Compound 46, (E)-3-(7-Methoxyindol-3-yl)-1-(3,4,5-trimethoxyphenyl)-2-propen-1-one]
78 nM	COc1cc(C(=O)/C=C/c2c(Cl)n(C)c3ccccc23)cc(OC)c1OC [Compound 13, (E)-3-(2-Chloro-1-methylindol-3-yl)-1-(3,4,5-trimethoxyphenyl)-2-propen-1-one]
2.5 nM	CCc1ccc2c(/C=C(\C)C(=O)c3cc(OC)c(OC)c(OC)c3)c[nH]c2c1 [Compound 66, (E)-3-(6-Ethylindol-3-yl)-2-methyl-1-(3,4,5-trimethoxyphenyl)-2-propen-1-one]
4.7 nM	CC/C(=C\c1c[nH]c2ccccc12)C(=O)c1cc(OC)c(OC)c(OC)c1 [Compound 62, (E)-2-Ethyl-3-(indol-3-yl)-1-(3,4,5-trimethoxyphenyl)-2-propen-1-one]
12 nM	COc1cc(C(=O)/C=C/c2c[nH]c3c(OC)c(OC)ccc23)cc(OC)c1OC [Compound 40, (E)-3-(6,7-Dimethoxyindol-3-yl)-1-(3,4,5-trimethoxyphenyl)-2-propen-1-one]
55 nM	COc1cc(C(=O)/C=C/c2cn(C)c3cc(NC(C)=O)ccc23)cc(OC)c1OC [Compound 38, (E)-3-(6-Acetamido-1-methylindol-3-yl)-1-(3,4,5-trimethoxyphenyl)-2-propen-1-one]

IC50	Compound
17 nM	COc1cc(C(=O)/C=C/c2cn(C(C)=O)c3ccccc23)cc(OC)c1OC [Compound 6, (E)-3-(1-Acetylindol-3-yl)-1-(3,4,5-trimethoxyphenyl)-2-propen-1-one]
25 nM	COc1cc(C(=O)/C=C/c2cn(C(=O)c3ccc(C)cc3)c3ccccc23)cc(OC)c1OC [Compound 50, (E)-3-[1-(4-Methylbenzoyl)indol-3-yl]-1-(3,4,5-trimethoxyphenyl)-2-propen-1-one]
260 nM	COc1cc(C(=O)/C=C/c2c(C)[nH]c3ccccc23)cc(OC)c1OC [Compound 12, (E)-3-(2-Methylindol-3-yl)-1-(3,4,5-trimethoxyphenyl)-2-propen-1-one]
86 nM	COc1cc(C(=O)/C=C/c2c[nH]c3cccc(C)c23)cc(OC)c1OC [Compound 15, (E)-3-(4-Methylindol-3-yl)-1-(3,4,5-trimethoxyphenyl)-2-propen-1-one]
110 nM	COc1cc(C(=O)/C=C/c2c[nH]c3ccc(C)cc23)cc(OC)c1OC [Compound 20, (E)-3-(5-Methylindol-3-yl)-1-(3,4,5-trimethoxyphenyl)-2-propen-1-one]
9.7 nM	COc1cc(C(=O)/C=C/c2cn(C(=O)c3ccncc3)c3ccccc23)cc(OC)c1OC [Compound 61, (E)-3-(1-Isonicotinoylindol-3-yl)-1-(3,4,5-trimethoxyphenyl)-2-propen-1-one]
2.3 nM	COc1cc(C(=O)C(=Cc2c[nH]c3ccccc23)c2ccccc2)cc(OC)c1OC [Compound 64, 3-(Indol-3-yl)-2-phenyl-1-(3,4,5-trimethoxyphenyl)-2-propen-1-one]
11 nM	COc1cc(C(=O)/C=C/c2cn(C(=O)COCC(=O)O)c3ccccc23)cc(OC)c1OC [Compound 67, (E)-3-(1-Diglycolylindol-3-yl)-1-(3,4,5-trimethoxyphenyl)-2-propen-1-one]
0.29 nM	COc1cc(C(=O)/C(C)=C/c2c[nH]c3ccccc23)cc(OC)c1OC [Compound 48, (E)-3-(Indol-3-yl)-2-methyl-1-(3,4,5-trimethoxyphenyl)-2-propen-1-one]
34 nM	COc1cccc(C(=O)n2cc(/C=C/C(=O)c3cc(OC)c(OC)c(OC)c3)c3ccccc32)c1 [Compound 53, (E)-3-[1-(3-Methoxybenzoyl)indol-3-yl]-1-(3,4,5-trimethoxyphenyl)-2-propen-1-one]
10 nM	COc1cc(C(=O)/C=C/c2c[nH]c3ccccc23)cc(OC)c1OC [Compound 1, (E)-3-(Indol-3-yl)-1-(3,4,5-trimethoxyphenyl)-2-propen-1-one]
20 nM	COc1cc(C(=O)/C=C/c2cn(C)c3ccccc23)cc(OC)c1OC [Compound 2, (E)-3-(1-Methylindol-3-yl)-1-(3,4,5-trimethoxyphenyl)-2-propen-1-one]
6.3 nM	COc1cc(C(=O)/C=C/c2c[nH]c3cc(C)ccc23)cc(OC)c1OC [Compound 32, (E)-3-(6-Methylindol-3-yl)-1-(3,4,5-trimethoxyphenyl)-2-propen-1-one]
6.3 nM	CCCC/C(=C\c1c[nH]c2ccccc12)C(=O)c1cc(OC)c(OC)c(OC)c1 [Compound 65, (E)-2-Butyl-3-(indol-3-yl)-1-(3,4,5-trimethoxyphenyl)-2-propen-1-one]
23 nM	COc1cc(C(=O)/C=C/c2cn(C(=O)c3ccc(NC(C)=O)cc3)c3ccccc23)cc(OC)c1OC [Compound 56, (E)-3-[1-(4-Acetamidobenzoyl)indol-3-yl]-1-(3,4,5-trimethoxyphenyl)-2-propen-1-one]
23 nM	COc1ccc(C(=O)n2cc(/C=C/C(=O)c3cc(OC)c(OC)c(OC)c3)c3ccccc32)cc1 [Compound 51, (E)--3-[1-(4-Methoxybenzoyl)indol-3-yl]-1-(3,4,5-trimethoxyphenyl)-2-propen-1-one]
